Test results: the supplement of paper PMC10307832

Assays:
Assay in all cases: relative viability (nuclei count vs DMSO), 5 days (fraction); higher = more cells survive
Carfilzomib = compound: CC(C)C[C@H](NC(=O)[C@H](CCc1ccccc1)NC(=O)CN1CCOCC1)C(=O)N[C@@H](Cc1ccccc1)C(=O)N[C@@H](CC(C)C)C(=O)[C@@]1(C)CO1 [Carfilzomib]
How it was run: (§1)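 In 1536-well plates, lung cancer cell lines rested overnight at 37 °C before five library-drug doses (not always all listed), √10 apart, were pinned onto vehicle-anchored plates. Nuclei were counted with MetaXpress from 4× Hoechst images taken after 5 days without medium change. Viability compares treated-well with vehicle-well nuclei as a median over plates, and plates needed control CV below 25% plus at least one doubling to pass.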

Olaparib = compound: O=C(c1cc(Cc2n[nH]c(=O)c3ccccc23)ccc1F)N1CCN(C(=O)C2CC2)CC1 [Olaparib]
How it was run: as §1

Crizotinib = compound: C[C@@H](Oc1cc(-c2cnn(C3CCNCC3)c2)cnc1N)c1c(Cl)ccc(F)c1Cl [Crizotinib]
How it was run: as §1

Olaparib + Pictilisib = compound: O=C(c1cc(Cc2n[nH]c(=O)c3ccccc23)ccc1F)N1CCN(C(=O)C2CC2)CC1 [Olaparib] + CS(=O)(=O)N1CCN(Cc2cc3nc(-c4cccc5[nH]ncc45)nc(N4CCOCC4)c3s2)CC1 [Pictilisib] (partner 1 µM)
How it was run: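 Dosing by pin tool came one day after lung cancer cell lines were seeded in 1536-well plates, using either one drug or a fixed anchor-drug dose plus five library-drug doses (not always all listed) in √10 steps. After 5 days, nuclei were counted on 4× images. Relative viability is treated-well nuclei count divided by vehicle-well nuclei count, and values are medians of duplicate plates.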

Cell Line | relative viability (Carfilzomib; 0.001 µM) | relative viability (Carfilzomib; 0.003162 µM) | relative viability (Carfilzomib; 0.01 µM) | relative viability (Carfilzomib; 0.03162 µM) | relative viability (Carfilzomib; 0.1 µM) | relative viability (Olaparib; 0.08 µM) | relative viability (Olaparib; 0.253 µM) | relative viability (Olaparib; 2.53 µM) | relative viability (Olaparib; 8 µM) | relative viability (Olaparib; 8 µM, anchor plate) | relative viability (Crizotinib; 0.01 µM) | relative viability (Crizotinib; 0.03162 µM) | relative viability (Crizotinib; 0.3162 µM) | relative viability (Crizotinib; 1 µM) | relative viability (Crizotinib; 1 µM, anchor plate) | relative viability (Olaparib + Pictilisib; first compound 0.08 µM) | relative viability (Olaparib + Pictilisib; first compound 0.253 µM) | relative viability (Olaparib + Pictilisib; first compound 2.53 µM) | relative viability (Olaparib + Pictilisib; first compound 8 µM) | relative viability (Crizotinib; 0.1 µM)
Calu-6 | 0.992 | 1.09 | 0.92 | 0.306 | 0.11 | 1.13 | 0.936 | 0.937 | 0.789 | 0.584 | 0.986 | 1.03 | 0.957 | 1.01 | 0.768 | 1.12 | 0.825 | 0.858 | 0.75 | –
ChaGo-K-1 | 0.884 | 1.05 | 1.01 | 0.864 | 0.304 | 1.05 | 0.925 | 0.906 | 0.788 | 0.422 | 0.977 | – | 0.769 | 0.976 | 1.11 | 1.27 | 0.674 | 0.75 | 0.661 | 0.953
EBC-1 | 1.01 | 1.09 | 0.642 | 0.11 | 0.103 | 1.2 | 0.883 | 0.98 | 0.752 | 0.703 | 0.965 | 1.05 | 0.17 | 0.199 | 0.192 | 0.392 | 0.345 | 0.368 | 0.304 | 0.976
EKVX | 0.913 | 1 | 1.17 | 0.76 | 0.369 | 1.03 | 0.885 | 0.969 | 1.03 | 0.884 | 0.969 | 0.941 | 0.847 | 0.982 | 0.967 | 0.493 | 0.444 | 0.41 | 0.477 | 0.933
EMC-BAC-2 | 0.957 | 1.18 | 1.04 | 0.972 | 0.432 | 1.1 | 0.91 | 1.05 | 0.849 | 0.477 | 1.08 | 0.96 | – | 0.923 | 0.767 | 0.662 | 0.5 | 0.524 | 0.496 | 0.98
EPLC-272H | 0.845 | 1.22 | 0.834 | 0.242 | 0.0648 | 1.17 | 0.889 | 0.968 | 0.878 | 0.832 | 0.883 | 0.932 | 0.778 | 0.955 | 0.912 | 0.311 | 0.284 | 0.278 | 0.283 | 0.937
H3255 | 0.973 | 1.09 | 1.11 | 0.718 | 0.373 | 1.01 | 0.869 | 1.05 | 0.924 | 0.579 | 0.963 | 0.993 | 0.911 | 1.03 | 0.934 | 0.478 | 0.406 | 0.445 | 0.386 | 0.991
HARA | 0.996 | 1.09 | 1.2 | 0.427 | 0.126 | 1.14 | 0.852 | 0.804 | 0.811 | 0.788 | 0.796 | – | 0.779 | 1.02 | 1.04 | 0.407 | 0.454 | 0.567 | 0.37 | 1.03
